Results from ChEMBL document CHEMBL5291721, “A preclinical secondary pharmacology resource illuminates target-adverse drug reaction associations of marketed drugs” (Nat Commun, 2023).

Assays:
[1] = target: T1, Alpha-2C adrenergic receptor (Homo sapiens, UniProt P18825); format: functional
T1 sequence (P18825 whole entry): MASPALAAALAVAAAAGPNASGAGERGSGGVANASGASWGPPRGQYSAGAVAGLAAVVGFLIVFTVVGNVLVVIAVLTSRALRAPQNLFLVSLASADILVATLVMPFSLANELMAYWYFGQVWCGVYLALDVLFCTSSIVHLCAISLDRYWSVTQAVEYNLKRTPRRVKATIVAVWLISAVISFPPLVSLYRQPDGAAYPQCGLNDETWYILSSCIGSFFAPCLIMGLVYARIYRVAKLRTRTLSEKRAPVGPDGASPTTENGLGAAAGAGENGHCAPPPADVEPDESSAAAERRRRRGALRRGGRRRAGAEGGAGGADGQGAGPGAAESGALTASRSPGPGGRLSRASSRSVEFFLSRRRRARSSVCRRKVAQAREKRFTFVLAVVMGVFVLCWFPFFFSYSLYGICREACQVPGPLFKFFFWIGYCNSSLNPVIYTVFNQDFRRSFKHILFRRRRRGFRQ

[2] = target: Beta-2 adrenergic receptor (Homo sapiens, UniProt P07550)
Vasopressin V2 receptor = Vasopressin V2 receptor (Homo sapiens, UniProt P30518)
B2 bradykinin receptor = target: T2, B2 bradykinin receptor (Homo sapiens, UniProt P30411)
T2 sequence (P30411 whole entry): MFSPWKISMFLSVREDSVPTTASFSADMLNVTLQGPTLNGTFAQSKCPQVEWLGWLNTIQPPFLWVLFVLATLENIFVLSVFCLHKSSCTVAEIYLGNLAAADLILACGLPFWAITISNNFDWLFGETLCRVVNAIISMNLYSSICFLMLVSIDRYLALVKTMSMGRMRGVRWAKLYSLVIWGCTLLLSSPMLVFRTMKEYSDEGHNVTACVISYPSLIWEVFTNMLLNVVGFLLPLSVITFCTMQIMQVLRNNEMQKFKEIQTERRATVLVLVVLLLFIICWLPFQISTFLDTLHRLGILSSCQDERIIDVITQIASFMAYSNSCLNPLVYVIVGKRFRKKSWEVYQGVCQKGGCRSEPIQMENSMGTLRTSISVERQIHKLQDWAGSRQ

[3] = target: T3, Cholecystokinin receptor type A (Homo sapiens, UniProt P32238)
T3 sequence (P32238 whole entry): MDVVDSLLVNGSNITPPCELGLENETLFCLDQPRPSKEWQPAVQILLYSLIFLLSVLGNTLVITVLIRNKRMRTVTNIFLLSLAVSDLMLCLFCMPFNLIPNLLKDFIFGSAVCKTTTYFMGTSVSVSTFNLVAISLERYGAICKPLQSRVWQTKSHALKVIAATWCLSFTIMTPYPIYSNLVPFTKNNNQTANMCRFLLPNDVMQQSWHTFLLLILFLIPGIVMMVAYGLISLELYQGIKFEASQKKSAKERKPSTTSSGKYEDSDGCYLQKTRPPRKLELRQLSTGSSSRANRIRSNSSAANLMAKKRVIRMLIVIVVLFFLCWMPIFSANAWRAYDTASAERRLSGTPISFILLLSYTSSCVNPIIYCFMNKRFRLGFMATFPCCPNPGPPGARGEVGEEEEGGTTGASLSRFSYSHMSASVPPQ

[4] = target: T4, Muscarinic acetylcholine receptor M2 (Homo sapiens, UniProt P08172); format: functional, cell-based
T4 sequence (P08172 whole entry): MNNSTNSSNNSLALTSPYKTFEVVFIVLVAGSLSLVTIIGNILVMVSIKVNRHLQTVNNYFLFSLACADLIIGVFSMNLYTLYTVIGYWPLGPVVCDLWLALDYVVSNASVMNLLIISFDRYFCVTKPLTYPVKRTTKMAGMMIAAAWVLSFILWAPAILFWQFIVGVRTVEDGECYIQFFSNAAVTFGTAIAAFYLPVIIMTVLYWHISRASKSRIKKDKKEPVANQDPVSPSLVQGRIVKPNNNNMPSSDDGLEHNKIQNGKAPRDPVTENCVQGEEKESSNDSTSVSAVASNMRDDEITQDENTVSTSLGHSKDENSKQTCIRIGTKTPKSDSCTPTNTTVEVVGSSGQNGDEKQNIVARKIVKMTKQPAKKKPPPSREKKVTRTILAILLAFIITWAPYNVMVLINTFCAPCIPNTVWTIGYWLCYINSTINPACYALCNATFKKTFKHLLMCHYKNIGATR

[5] = target: Muscarinic acetylcholine receptor M3 (Homo sapiens, UniProt P20309)
[6] = target: Neuronal acetylcholine receptor subunit alpha-4 (Homo sapiens, UniProt P43681)
Histamine H2 receptor = Histamine H2 receptor (Homo sapiens, UniProt P25021); format: functional, cell-based
[7] = target: 5-hydroxytryptamine receptor 2A (Homo sapiens, UniProt P28223); format: functional, cell-based
Motilin receptor = Motilin receptor (Homo sapiens, UniProt O43193)
Mu-type opioid receptor = Mu-type opioid receptor (Homo sapiens, UniProt P35372); assay: biochemical; format: functional
[8] = target: Sodium-dependent dopamine transporter (Homo sapiens, UniProt Q01959)
D(3) dopamine receptor = D(3) dopamine receptor (Homo sapiens, UniProt P35462)
Endothelin-1 receptor = target: T5, Endothelin-1 receptor (Homo sapiens, UniProt P25101)
T5 sequence (P25101 whole entry): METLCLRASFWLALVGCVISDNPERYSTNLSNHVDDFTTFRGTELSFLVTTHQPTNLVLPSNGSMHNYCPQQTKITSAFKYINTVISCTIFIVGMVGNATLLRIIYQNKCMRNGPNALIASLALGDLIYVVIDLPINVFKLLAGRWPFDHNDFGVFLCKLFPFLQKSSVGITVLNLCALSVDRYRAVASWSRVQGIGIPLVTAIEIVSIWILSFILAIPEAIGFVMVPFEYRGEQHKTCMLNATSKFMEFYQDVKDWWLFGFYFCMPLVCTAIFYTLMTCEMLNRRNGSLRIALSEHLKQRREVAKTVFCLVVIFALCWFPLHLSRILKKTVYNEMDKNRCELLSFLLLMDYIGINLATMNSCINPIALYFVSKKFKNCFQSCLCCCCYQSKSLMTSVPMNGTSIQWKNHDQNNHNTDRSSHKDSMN
Further: assay procedure not described here.

Chain of Sodium-dependent dopamine transporter (Q01959 whole entry): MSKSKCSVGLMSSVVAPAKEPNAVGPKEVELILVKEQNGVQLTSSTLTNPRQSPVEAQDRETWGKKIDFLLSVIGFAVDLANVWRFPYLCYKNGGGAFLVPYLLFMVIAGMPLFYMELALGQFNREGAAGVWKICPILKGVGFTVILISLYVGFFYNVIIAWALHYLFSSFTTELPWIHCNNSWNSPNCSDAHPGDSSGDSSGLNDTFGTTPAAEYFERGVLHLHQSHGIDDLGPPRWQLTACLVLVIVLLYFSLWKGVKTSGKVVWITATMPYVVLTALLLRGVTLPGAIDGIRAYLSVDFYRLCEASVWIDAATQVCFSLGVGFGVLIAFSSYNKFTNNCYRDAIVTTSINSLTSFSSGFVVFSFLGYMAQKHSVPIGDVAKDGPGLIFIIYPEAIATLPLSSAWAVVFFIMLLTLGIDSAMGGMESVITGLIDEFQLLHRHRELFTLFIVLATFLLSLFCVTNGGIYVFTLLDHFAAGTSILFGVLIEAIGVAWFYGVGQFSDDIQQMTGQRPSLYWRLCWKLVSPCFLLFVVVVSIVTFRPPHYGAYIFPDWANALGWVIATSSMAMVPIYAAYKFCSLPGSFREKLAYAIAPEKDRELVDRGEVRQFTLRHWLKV
Chain of Motilin receptor (O43193 whole entry): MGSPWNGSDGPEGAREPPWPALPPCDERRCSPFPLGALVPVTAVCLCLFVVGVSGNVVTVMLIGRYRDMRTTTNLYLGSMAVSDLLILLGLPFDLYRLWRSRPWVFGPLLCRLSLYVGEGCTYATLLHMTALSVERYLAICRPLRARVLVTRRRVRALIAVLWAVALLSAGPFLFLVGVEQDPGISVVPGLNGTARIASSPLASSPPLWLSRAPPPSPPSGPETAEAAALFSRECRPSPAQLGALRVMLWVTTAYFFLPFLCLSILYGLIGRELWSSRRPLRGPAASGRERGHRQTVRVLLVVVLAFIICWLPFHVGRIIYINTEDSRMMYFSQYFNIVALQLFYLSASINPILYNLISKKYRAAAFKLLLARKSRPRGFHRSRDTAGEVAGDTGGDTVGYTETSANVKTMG
Chain of Histamine H2 receptor (P25021 whole entry): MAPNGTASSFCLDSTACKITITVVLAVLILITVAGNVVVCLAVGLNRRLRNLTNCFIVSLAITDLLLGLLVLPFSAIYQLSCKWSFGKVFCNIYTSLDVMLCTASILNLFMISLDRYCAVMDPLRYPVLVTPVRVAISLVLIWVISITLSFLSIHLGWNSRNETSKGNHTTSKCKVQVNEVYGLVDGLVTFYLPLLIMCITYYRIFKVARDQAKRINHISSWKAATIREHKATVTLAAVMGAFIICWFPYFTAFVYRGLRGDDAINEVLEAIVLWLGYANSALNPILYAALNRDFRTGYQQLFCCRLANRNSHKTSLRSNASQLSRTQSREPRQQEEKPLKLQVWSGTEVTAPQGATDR
Chain of Neuronal acetylcholine receptor subunit alpha-4 (P43681 whole entry): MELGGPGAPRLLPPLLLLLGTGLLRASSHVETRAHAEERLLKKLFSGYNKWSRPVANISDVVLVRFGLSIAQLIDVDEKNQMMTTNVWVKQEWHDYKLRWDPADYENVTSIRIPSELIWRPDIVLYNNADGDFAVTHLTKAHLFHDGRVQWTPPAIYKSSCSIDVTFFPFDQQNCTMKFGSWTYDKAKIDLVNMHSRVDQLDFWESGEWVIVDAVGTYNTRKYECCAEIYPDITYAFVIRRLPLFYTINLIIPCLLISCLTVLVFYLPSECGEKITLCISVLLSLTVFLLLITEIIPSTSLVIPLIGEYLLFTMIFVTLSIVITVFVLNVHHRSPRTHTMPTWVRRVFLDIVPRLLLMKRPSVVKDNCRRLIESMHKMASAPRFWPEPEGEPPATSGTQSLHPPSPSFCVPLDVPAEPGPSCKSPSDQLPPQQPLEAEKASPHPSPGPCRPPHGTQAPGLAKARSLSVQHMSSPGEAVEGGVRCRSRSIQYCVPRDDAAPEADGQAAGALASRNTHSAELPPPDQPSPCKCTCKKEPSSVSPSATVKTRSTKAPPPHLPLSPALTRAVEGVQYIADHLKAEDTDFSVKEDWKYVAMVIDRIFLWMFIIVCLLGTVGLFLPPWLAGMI
Chain of Vasopressin V2 receptor (P30518 whole entry): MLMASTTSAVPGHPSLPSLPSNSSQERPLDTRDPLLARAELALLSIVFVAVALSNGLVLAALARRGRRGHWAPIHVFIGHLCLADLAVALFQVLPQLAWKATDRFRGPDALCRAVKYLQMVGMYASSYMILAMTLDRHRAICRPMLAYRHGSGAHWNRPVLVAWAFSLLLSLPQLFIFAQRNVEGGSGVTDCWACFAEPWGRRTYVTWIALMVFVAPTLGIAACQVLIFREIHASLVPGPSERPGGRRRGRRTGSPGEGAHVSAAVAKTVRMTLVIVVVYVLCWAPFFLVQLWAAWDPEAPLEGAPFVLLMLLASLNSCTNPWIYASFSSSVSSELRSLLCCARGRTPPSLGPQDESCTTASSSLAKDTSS
Chain of D(3) dopamine receptor (P35462 whole entry): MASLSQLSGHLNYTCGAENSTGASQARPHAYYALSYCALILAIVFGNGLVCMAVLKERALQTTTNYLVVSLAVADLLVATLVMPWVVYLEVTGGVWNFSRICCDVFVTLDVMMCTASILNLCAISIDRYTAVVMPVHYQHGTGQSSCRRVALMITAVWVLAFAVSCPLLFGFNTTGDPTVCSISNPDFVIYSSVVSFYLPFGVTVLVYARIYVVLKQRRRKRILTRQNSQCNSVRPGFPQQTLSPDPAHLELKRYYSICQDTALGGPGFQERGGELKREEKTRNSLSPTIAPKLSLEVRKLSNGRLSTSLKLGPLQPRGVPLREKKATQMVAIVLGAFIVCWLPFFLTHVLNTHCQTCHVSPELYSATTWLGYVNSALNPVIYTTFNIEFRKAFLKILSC
Chain of Beta-2 adrenergic receptor (P07550 whole entry): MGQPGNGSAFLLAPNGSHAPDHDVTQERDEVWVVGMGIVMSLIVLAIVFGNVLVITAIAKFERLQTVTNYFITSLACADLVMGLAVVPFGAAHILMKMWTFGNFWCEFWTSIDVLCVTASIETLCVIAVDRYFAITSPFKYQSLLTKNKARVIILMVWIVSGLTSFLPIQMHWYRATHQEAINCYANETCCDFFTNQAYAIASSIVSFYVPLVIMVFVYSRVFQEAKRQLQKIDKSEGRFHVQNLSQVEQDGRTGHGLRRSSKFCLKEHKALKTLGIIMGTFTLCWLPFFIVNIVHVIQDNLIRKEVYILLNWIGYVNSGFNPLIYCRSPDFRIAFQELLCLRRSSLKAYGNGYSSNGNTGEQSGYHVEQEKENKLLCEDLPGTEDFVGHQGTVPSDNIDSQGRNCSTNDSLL
Chain of 5-hydroxytryptamine receptor 2A (P28223 whole entry): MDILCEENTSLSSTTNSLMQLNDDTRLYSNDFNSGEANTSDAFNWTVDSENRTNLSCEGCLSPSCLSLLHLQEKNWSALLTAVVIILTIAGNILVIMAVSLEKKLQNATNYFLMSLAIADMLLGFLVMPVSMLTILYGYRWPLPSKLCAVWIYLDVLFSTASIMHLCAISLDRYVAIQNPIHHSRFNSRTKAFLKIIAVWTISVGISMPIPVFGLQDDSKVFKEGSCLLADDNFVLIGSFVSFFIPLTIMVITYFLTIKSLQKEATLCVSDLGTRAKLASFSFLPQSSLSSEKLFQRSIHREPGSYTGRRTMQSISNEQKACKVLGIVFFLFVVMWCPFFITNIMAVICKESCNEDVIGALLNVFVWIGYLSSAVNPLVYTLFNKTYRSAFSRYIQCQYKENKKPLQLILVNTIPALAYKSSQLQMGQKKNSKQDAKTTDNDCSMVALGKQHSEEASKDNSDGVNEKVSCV
Chain of Muscarinic acetylcholine receptor M3 (P20309 whole entry): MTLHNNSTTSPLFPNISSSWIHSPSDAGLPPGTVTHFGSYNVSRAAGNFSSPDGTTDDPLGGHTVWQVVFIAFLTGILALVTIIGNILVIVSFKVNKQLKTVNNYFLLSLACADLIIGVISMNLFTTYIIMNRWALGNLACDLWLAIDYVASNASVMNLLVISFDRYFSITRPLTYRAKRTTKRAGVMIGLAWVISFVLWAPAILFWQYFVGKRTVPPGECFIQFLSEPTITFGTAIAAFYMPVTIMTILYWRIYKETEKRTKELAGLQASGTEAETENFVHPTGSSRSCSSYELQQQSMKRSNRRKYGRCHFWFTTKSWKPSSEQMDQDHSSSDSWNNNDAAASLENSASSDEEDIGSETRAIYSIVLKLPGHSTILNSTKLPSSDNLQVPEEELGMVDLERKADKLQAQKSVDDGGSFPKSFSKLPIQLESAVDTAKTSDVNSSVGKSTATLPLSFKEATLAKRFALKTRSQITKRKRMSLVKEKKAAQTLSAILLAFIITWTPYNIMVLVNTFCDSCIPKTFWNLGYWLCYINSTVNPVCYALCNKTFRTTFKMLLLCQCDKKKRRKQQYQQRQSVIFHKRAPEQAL
Chain of Mu-type opioid receptor (P35372 whole entry): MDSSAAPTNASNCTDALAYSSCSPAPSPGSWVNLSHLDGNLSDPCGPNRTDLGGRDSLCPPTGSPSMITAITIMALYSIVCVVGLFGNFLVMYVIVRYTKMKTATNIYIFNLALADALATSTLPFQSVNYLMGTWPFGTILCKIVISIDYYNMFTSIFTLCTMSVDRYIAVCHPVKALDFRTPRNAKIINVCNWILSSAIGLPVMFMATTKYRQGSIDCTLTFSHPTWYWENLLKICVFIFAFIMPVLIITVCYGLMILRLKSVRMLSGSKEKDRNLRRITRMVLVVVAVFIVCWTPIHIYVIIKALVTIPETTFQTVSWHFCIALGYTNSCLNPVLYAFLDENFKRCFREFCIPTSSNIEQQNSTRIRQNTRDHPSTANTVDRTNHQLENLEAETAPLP

SMILES	AC50 [1]	AC50 [2]	AC50 (Vasopressin V2 receptor)	AC50 (B2 bradykinin receptor)	AC50 [3]	AC50 [4]	AC50 [5]	AC50 [6]	AC50 (Histamine H2 receptor)	AC50 [7]	AC50 (Motilin receptor)	AC50 (Mu-type opioid receptor)	AC50 [8]	AC50 (D(3) dopamine receptor)	AC50 (Endothelin-1 receptor)
Cc1cc(O)c(C(=O)N[C@@H](C(=O)N[C@@H]2C(=O)N3C(C(=O)O)=C(CSc4nnnn4C)CS[C@H]23)c2ccc(O)cc2)cn1 [CEFPIRAMIDE]	> 30 µM	> 30 µM	> 30 µM	> 30 µM	> 30 µM	> 30 µM	> 30 µM	> 30 µM	> 30 µM	> 30 µM	> 30 µM	> 30 µM	> 30 µM	> 30 µM	
O=C(O)CCCCCCCC(=O)O [AZELAIC ACID]	> 10 µM	> 10 µM	> 10 µM	> 10 µM	> 10 µM	> 10 µM	> 30 µM	> 10 µM	> 30 µM	> 10 µM	> 10 µM	> 30 µM	> 10 µM	> 30 µM	
Cn1c(=O)c2c(ncn2CC2OCCO2)n(C)c1=O [DOXOFYLLINE]	> 30 µM	> 30 µM	> 10 µM	> 30 µM	> 30 µM	> 30 µM		> 30 µM	> 30 µM		> 30 µM	> 30 µM	> 30 µM	> 30 µM	> 30 µM
COC(=O)C1=C(C)NC(C)=C(C(=O)OC(C)(C)CN(C)CCC(c2ccccc2)c2ccccc2)C1c1cccc([N+](=O)[O-])c1 (stereo not drawn) [LERCANIDIPINE]	> 30 µM	> 30 µM	> 30 µM	> 30 µM	> 30 µM	> 30 µM	> 30 µM	> 30 µM	> 30 µM	> 30 µM	12.6 µM	> 30 µM	35.7 µM	> 30 µM	
C=CCC1(CC(C)C)C(=O)NC(=O)NC1=O [BUTALBITAL]	> 30 µM	> 10 µM	> 10 µM	> 10 µM	> 10 µM	> 10 µM	> 30 µM	> 10 µM	> 30 µM	> 10 µM	> 10 µM	> 30 µM	> 10 µM	> 30 µM	
CCCN(CCC)C(=O)C(CCC(=O)O)NC(=O)c1ccccc1 (stereo not drawn) [PROGLUMIDE]	> 30 µM	> 30 µM	> 30 µM	> 30 µM	> 30 µM	> 10 µM		> 30 µM	> 30 µM		> 30 µM	> 30 µM	> 30 µM	> 30 µM	> 30 µM
CO[C@@H]1[C@@H](O[C@@H]2O[C@H](C)[C@@H](O[C@H]3C[C@@](C)(O)[C@@H](OC(=O)CC(C)C)[C@H](C)O3)[C@H](N(C)C)[C@H]2O)[C@@H](CC=O)C[C@@H](C)[C@@H](O)/C=C/C=C/C[C@@H](C)OC(=O)C[C@H]1OC(C)=O [JOSAMYCIN]	> 10 µM	> 10 µM	> 10 µM	> 10 µM	> 10 µM	> 10 µM	> 30 µM	> 10 µM	> 10 µM	> 10 µM	> 10 µM	> 30 µM	> 10 µM	> 30 µM	
C[C@]1(O)CC[C@H]2[C@@H]3CCC4=CC(=O)CC[C@]4(C)[C@@]3(F)[C@@H](O)C[C@@]21C [FLUOXYMESTERONE]	> 30 µM	> 10 µM	> 10 µM	> 10 µM	> 10 µM	> 10 µM	> 30 µM	> 10 µM	> 30 µM	> 10 µM	> 10 µM	> 30 µM	> 10 µM	> 30 µM	
C#C[C@]1(O)CC[C@H]2[C@@H]3CCc4cc(OC5CCCC5)ccc4[C@H]3CC[C@@]21C [QUINESTROL]	> 10 µM	> 10 µM	> 10 µM	> 10 µM	> 10 µM	> 10 µM	> 30 µM	> 10 µM	> 10 µM	> 10 µM	> 10 µM	> 30 µM	> 10 µM	> 30 µM	
CCCC(C)C1(CC)C(=O)NC(=O)NC1=O (stereo not drawn) [PENTOBARBITAL]	> 30 µM	> 10 µM	> 10 µM	> 10 µM	> 10 µM	> 10 µM	> 30 µM	> 10 µM	> 30 µM	> 10 µM	> 10 µM	> 30 µM	> 10 µM	> 30 µM	
Cc1cccc(C(C)c2cnc[nH]2)c1C (stereo not drawn) [MEDETOMIDINE]	1.3 µM	> 30 µM	> 30 µM	> 30 µM	> 30 µM	> 10 µM	> 30 µM	> 30 µM	> 30 µM	> 30 µM	> 30 µM	> 30 µM	> 30 µM	> 30 µM	
CCOC(=O)OC(C)OC1=C(C(=O)Nc2ccccn2)N(C)S(=O)(=O)c2ccccc21 (stereo not drawn) [AMPIROXICAM]	> 30 µM	> 30 µM	> 30 µM	> 30 µM	> 30 µM	> 30 µM		> 30 µM	> 30 µM		> 30 µM	> 30 µM	> 30 µM	> 30 µM	> 30 µM
CC(=O)O[C@H]1C[C@@H]2CC[C@@H]3[C@H](CC[C@@]4(C)[C@H]3C[C@H]([N+]3(C)CCCCC3)[C@@H]4OC(C)=O)[C@@]2(C)C[C@@H]1N1CCCCC1 [VECURONIUM]	> 30 µM	> 30 µM	> 30 µM	> 30 µM	> 30 µM	> 30 µM		> 30 µM	> 30 µM		> 30 µM	> 30 µM	> 30 µM	> 30 µM	> 30 µM
